From patent US7259140B2, “Heparin-binding peptides and uses thereof” (Thomas Jefferson University, priority 2003, dated 2007)
Bridge positions count the residues as written; N and C are the ends. Ends that are not written are not given here. Peptide text beside a SMILES is read from it.

Legend:
[1] = Hemodynamic effects in rats without prior Lovenox
Protocol: Rats were sedated, and catheters were inserted into the femoral vein and femoral artery. The femoral artery catheter was hooked up to the computerized monitoring system, and injections were made through the femoral vein. Peptides were injected into rats without prior injection of Lovenox. Two or more rats (300-350 grams) were treated with 2 mg protamine or peptide.
At the times indicated in the figures, the following actions were taken: administration of saline to insure that the animal and intubations were stable; administration of test peptide or protamine alone; then administration of protamine.

[2] = tested on: unfractionated heparin (thrombin-induced clot formation); assay: Thrombin neutralization assay: clotting time of citrated plasma in the presence of unfractionated heparin; assay type: biochemical, human; conditions: for Time for clot formation: UFH 0.5 IU/ml
Protocol: It was determined whether heparin-binding peptides of the invention can neutralize unfractionated heparin using the thrombin neutralization assay. The six peptides that were synthesized and used in this Example are: (ARKKAAKA)3VLVLVLVL (SEQ ID NO:5); (ARKKAAKA)(A16)(ARKKAAKA) (SEQ ID NO:30); (ARKKAAKA)4 (SEQ ID NO:31); (AKKARA)6 (SEQ ID NO:32); (ARKKAAKA)3(ARKKCAKA) (SEQ ID NO:33); and cyclized C(ARKKAAKA)4C (SEQ ID NO:34); Citrated plasma was pipetted into a glass tube. Thrombin was added, the tube was manually rotated, and clotting time was determined by observation of clot formation. Normal clotting time is 19-22 seconds.
As a control, to assess the effect of heparin on clot formation, unfractionated heparin was added to the plasma at 0.5 IU anti-thrombin activity/ml and then thrombin was added. Clotting time in the presence of heparin alone was greater than 3 minutes.
To test the effect of peptides, heparin and six peptides at the concentrations indicated in Table 4 were added to the plasma, the mixture was allowed to stand at room temperature for 1 minute, and thrombin was added. The time for the clot to form is indicated. Experiments were performed using plasma from three volunteers—A, B, and C.

[3] = tested on: anti-Factor Xa activity of Lovenox®; assay: In vivo neutralization of the LMWH Lovenox in rats (anti-Factor Xa assay of plasma)
Protocol: Experiments were performed to test the ability of heparin-binding peptides of the invention to neutralize low molecular weight heparins which are used clinically, such as Lovenox®. To this end, rats were cannulated in the jugular and femoral veins. Lovenox® was injected through the jugular vein, and three minutes later the peptide was injected via the jugular vein. The peptides tested included (ARKKAAKA)4 (SEQ ID NO:31), C(ARKKAAKA)4C (SEQ ID NO:34), (ARKKAAKA)3ARKKCAKA (SEQ ID NO:33), and (ARKKAAKA)3VLVLVLVL (SEQ ID NO:5). Blood was collected from the femoral vein. 0.1 ml was collected at each time point. Plasma was prepared from each tube, and the anti-Factor Xa assay was performed.
Results. The dose response of each peptide from 2 mg/300 gm to 0.5 mg/300 gm was tested and a representative dose (1.0 mg) is shown in FIG. 4. […] The absorbance is inversely proportional to the heparin concentration. There is no heparin present when A405=0.7, and about 1 U/ml when A405=0.4. The events at the arrows are indicated in the box insert.

[4] = 0.30 μg peptide/0.1 ml, plasma A
[5] = 0.30 μg peptide/0.1 ml, plasma B
[6] = 0.35 μg peptide/0.1 ml, plasma A
[7] = 0.35 μg peptide/0.1 ml, plasma B
[8] = 0.35 μg peptide/0.1 ml, plasma C
[9] = 0.40 μg peptide/0.1 ml, plasma A
[10] = 0.40 μg peptide/0.1 ml, plasma B
[11] = 0.40 μg peptide/0.1 ml, plasma C
[12] = 0.50 μg peptide/0.1 ml, plasma A
[13] = 0.50 μg peptide/0.1 ml, plasma B
[14] = 0.50 μg peptide/0.1 ml, plasma C

Molecule | time to nadir of blood pressure ([1]; 2 mg per rat, no Lovenox) | Time for clot formation [2, 4] [s] | Time for clot formation [2, 5] [s] | Time for clot formation [2, 6] [s] | Time for clot formation [2, 7] [s] | Time for clot formation [2, 8] [s] | Time for clot formation [2, 9] [s] | Time for clot formation [2, 10] [s] | Time for clot formation [2, 11] [s] | Time for clot formation [2, 12] [s] | Time for clot formation [2, 13] [s] | Time for clot formation [2, 14] [s] | effect on blood pressure ([1]; 2 mg per rat, no Lovenox) | effectiveness in thrombin neutralization assay [2] | also measured
ARKKAAKAARKKAAKAARKKAAKAARKKAAKA [(ARKKAAKA)4] | 2 min | 56.33 ± 4.92 | 53.33 ± 1.25 | 22.33 ± 0.47 | 39.00 ± 5.35 | 32.67 ± 0.47 | 18.67 ± 0.94 | 26.30 ± 1.25 | 22.67 ± 1.25 | 19.67 ± 1.25 | 24.00 ± 0.82 | 20.67 ± 0.94 | – | – | –
ARKKAAKAAAAAAAAAAAAAAAAAARKKAAKA [ARKKAAKA(A16)ARKKAAKA, reference compound] | – | – | – | – | – | – | – | – | – | – | – | – | did not affect blood pressure | ineffective | Time for clot formation ([2]; 6.0 μg peptide/0.1 ml, plasma B): 55.00 ± 4.08 s; Time for clot formation ([2]; 6.5 μg peptide/0.1 ml, plasma A): 76.33 ± 4.19 s; Time for clot formation ([2]; 6.5 μg peptide/0.1 ml, plasma C): 48.67 ± 7.72 s; Time for clot formation ([2]; 7.0 μg peptide/0.1 ml, plasma A): 61.00 ± 2.94 s; Time for clot formation ([2]; 7.0 μg peptide/0.1 ml, plasma B): 85.67 ± 3.30 s; Time for clot formation ([2]; 7.0 μg peptide/0.1 ml, plasma C): 47.67 ± 3.77 s; Time for clot formation ([2]; 7.5 μg peptide/0.1 ml, plasma A): 58.67 ± 1.89 s; Time for clot formation ([2]; 7.5 μg peptide/0.1 ml, plasma C): 180.0 ± 0.00 s
ARKKAAKAARKKAAKAARKKAAKAVLVLVLVL [(ARKKAAKA)3VLVLVLVL] | – | 37.00 ± 2.16 | 40.00 ± 1.63 | – | 28.33 ± 1.70 | 45.33 ± 2.05 | 20.00 ± 0.82 | 26.67 ± 1.25 | 32.33 ± 2.05 | 17.67 ± 1.25 | 23.67 ± 0.47 | 25.67 ± 0.47 | In most rats no drop in blood pressure was seen | – | rank in in vivo neutralization of Lovenox [3]: most effective at the lowest dose; duration of transient blood pressure drop ([1]; in one rat): 1 to 2 min
Protamine [reference compound] | about 4.5 minutes | – | – | – | – | – | – | – | – | – | – | – | – | – | reduction/drop of blood pressure ([1]; 2 mg per rat (300-350 grams), no Lovenox): 25-35 mm Hg; onset of blood pressure reduction ([1]; 2 mg per rat, no Lovenox): within less than a minute; time to recovery/reversal of blood pressure ([1]; 2 mg per rat, no Lovenox): 10 to 12 min
C[C@@H]1NC(=O)[C@H](C)NC(=O)[C@H](CCCCN)NC(=O)[C@H](CCCCN)NC(=O)[C@H](CCCNC(=N)N)NC(=O)[C@H](C)NC(=O)[C@H](C)NC(=O)[C@H](CCCCN)NC(=O)[C@H](C)NC(=O)[C@H](C)NC(=O)[C@H](CCCCN)NC(=O)[C@H](CCCCN)NC(=O)[C@H](CCCNC(=N)N)NC(=O)[C@H](C)NC(=O)[C@@H](N)CSSC[C@@H](C(=O)O)NC(=O)[C@H](C)NC(=O)[C@H](CCCCN)NC(=O)[C@H](C)NC(=O)[C@H](C)NC(=O)[C@H](CCCCN)NC(=O)[C@H](CCCCN)NC(=O)[C@H](CCCNC(=N)N)NC(=O)[C@H](C)NC(=O)[C@H](C)NC(=O)[C@H](CCCCN)NC(=O)[C@H](C)NC(=O)[C@H](C)NC(=O)[C@H](CCCCN)NC(=O)[C@H](CCCCN)NC(=O)[C@H](CCCNC(=N)N)NC(=O)[C@H](C)NC(=O)[C@H](C)NC(=O)[C@H](CCCCN)NC1=O [C(ARKKAAKA)4C, cyclized C(ARKKAAKA)4C] (H-CARKKAAKAARKKAAKAARKKAAKAARKKAAKAC-OH; disulfide 1-34) | – | – | – | 37.67 ± 5.25 | – | – | 29.00 ± 0.82 | 47.67 ± 8.34 | 56.33 ± 1.70 | 23.67 ± 2.05 | 34.33 ± 1.25 | 43.00 ± 2.45 | did not cause a change in blood pressure | effective | –
